Measurements as given in patent publication US20060172361A1, “Assay for detection of translocase enzyme activity in drug screening” (AstraZeneca AB, priority 2000, published 2006).

Assays:
transferase enzyme = assay: Scintillation proximity assay of transferase alone, with pre-formed Lipid I and Tunicamycin block, using E. coli AMA1004 ΔponB membranes (Example 4); assay type: biochemical, Escherichia coli; conditions: after subtracting 0% reaction readings
Method: Microbiol., (1985), 131, 2839-2845. The plate was incubated for 20 min at 37° C.
(ii) Tunicamycin was then added to a final concentration of 10 μg/ml, followed by a test compound (e.g. Vancomycin or Nisin) of varying concentration in dimethyl sulphoxide. Nisin and Vancomycin are known antagonists of the transferase enzyme.
(iii) Then to the reaction well, in a 5 μl volume, the substrate for the transferase was added: 2.5 μM tritiated UDP-N-acetyl glucosamine (0.5 μCi per well). The microtitre plate was incubated for 5 min at 37° C.
(iv) The reaction was terminated by diluting out the radiolabel i.e. by addition of 25 μl of 200 μM unlabelled UDP-GlcNAc.

[1] = tested on: translocase and transferase enzymes; assay: Scintillation proximity assay of Lipid II synthesis (translocase plus transferase) with lysozyme-prepared E. coli AMA1004 membranes (Example 3); conditions: 100 μM test compound; after subtracting 0% reaction readings
Method: (i) The wells of a microtitre plate were individually filled with a total volume of 25 μl of a reaction mixture comprising an aqueous buffer solution of 50 mM HEPES-ammonia (N-[2-Hydroxyethyl]piperazine-N′-[2-ethanesulfonic acid]) (pH 7.5), and 10 mM magnesium chloride 15 μM UDP-MurNAc-L-alanine-γ-D-glutamic acid-m-diaminopimelic acid-D-alanine-D-alanine, 2.5 μM tritiated UDP-N-acetyl glucosamine (0.2 μCi per well), 6 μg of Escherichia coli AMA1004 cell membranes prepared as described below and a solution of test compound (e.g. Tunicamycin, Vancomycin) of varying concentration in 4% dimethylsulphoxide.
Four wells of the microtitre plate were used as controls: two wells contained no UDP-N-acetylmuramylpentapeptide (0% reaction controls) and a further two wells contained no test compound (100% reaction controls).
If the purpose of the screen is to study the effect of an inhibitor of the transferase or translocase the test compound is added along with the substrates at step (i).
The E. coli membranes were prepared as follows.
Four to five colonies of the bacteria from an LB (Luria Bertani medium) agar plate were inoculated into 5 ml LB-broth and grown during the day (for 6-8 hours) at 37° C. […]
The plate was left for 3 hours/overnight at room temperature before being counted in the “Microbeta Trilux” counter.

Compound: CN[C@H](CC(C)C)C(=O)N[C@H]1C(=O)N[C@@H](CC(N)=O)C(=O)N[C@H]2C(=O)N[C@H]3C(=O)N[C@H](C(=O)N[C@H](C(=O)O)c4cc(O)cc(O)c4-c4cc3ccc4O)[C@H](O)c3ccc(c(Cl)c3)Oc3cc2cc(c3O[C@@H]2O[C@H](CO)[C@@H](O)[C@H](O)[C@H]2O[C@H]2C[C@](C)(N)[C@H](O)[C@H](C)O2)Oc2ccc(cc2Cl)[C@H]1O [Vancomycin]
- % Enzyme Activity (transferase enzyme; 100 μM test compound): ˜50%
- % Inhibition [1]: 82%

Compound: Nisin
- % Enzyme Activity (transferase enzyme; 10 μg/ml test compound): ˜30%
